Measured values: ChEMBL document CHEMBL1201861, “Genomics of Drug Sensitity in Cancer screening data, Wellcome Trust Sanger Institute”

Assays:
Experiment in all cases: cells
Format in all cases: functional, cell-based, Homo sapiens
MS-1 = settings: Homo sapiens, MS-1;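 note: growth inhibition of MS-1 cells, read out by cell viability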
Description: SANGER: Inhibition of human MS-1 cell growth in a cell viability assay.

LU-134-A = settings: Homo sapiens, LU-134-A
Description: SANGER: Inhibition of human LU-134-A cell growth in a cell viability assay.

CTB-1 = settings: Homo sapiens, CTB-1
Description: SANGER: Inhibition of human CTB-1 cell growth in a cell viability assay.

COLO-320-HSR = settings: Homo sapiens, COLO-320-HSR;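 note: growth inhibition of COLO-320-HSR cells, determined with a cell viability assay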
Description: SANGER: Inhibition of human COLO-320-HSR cell growth in a cell viability assay.

CAS-1 = settings: Homo sapiens, CAS-1;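 note: growth inhibition of CAS-1 cells, measured with a cell viability assay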
Description: SANGER: Inhibition of human CAS-1 cell growth in a cell viability assay.

SNU1 = settings: Homo sapiens, SNU1;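 note: growth inhibition of human NCI-SNU-1 cells, measured with a cell viability assay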
Description: SANGER: Inhibition of human NCI-SNU-1 cell growth in a cell viability assay.

PSN1 = settings: Homo sapiens, PSN1;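 note: suppression of growth of human PSN1 cells, read out by a cell viability assay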
Description: SANGER: Inhibition of human PSN1 cell growth in a cell viability assay.

TGW = settings: Homo sapiens, TGW;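 note: growth inhibition of human TGW cells, read out with a cell viability assay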
Description: SANGER: Inhibition of human TGW cell growth in a cell viability assay.

LAN-6 = settings: Homo sapiens, LAN-6;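 note: growth inhibition of LAN-6 cells, determined with a cell viability assay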
Description: SANGER: Inhibition of human LAN-6 cell growth in a cell viability assay.

KY821 = settings: Homo sapiens, KY821;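 note: growth inhibition of human KY821 cells, read out by a cell viability assay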
Description: SANGER: Inhibition of human KY821 cell growth in a cell viability assay.

Becker = settings: Homo sapiens, Becker;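 note: growth inhibition of Becker cells, read out with a cell viability assay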
Description: SANGER: Inhibition of human Becker cell growth in a cell viability assay.

HCC2218 = settings: Homo sapiens, HCC2218;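 note: cell viability assay read-out, with IC50 given as the concentration that inhibits growth of the cell line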
Description: SANGER: Inhibition of human HCC2218 cell growth in a cell viability assay.

Calu-6 = settings: Homo sapiens, Calu-6;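 note: growth of human Calu-6 cells, read out by a cell viability assay, IC50 marking inhibition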
Description: SANGER: Inhibition of human Calu-6 cell growth in a cell viability assay.

LB2518-MEL = settings: Homo sapiens, LB2518-MEL;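 note: growth inhibition of human LB2518-MEL cells, measured with a cell viability assay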
Description: SANGER: Inhibition of human LB2518-MEL cell growth in a cell viability assay.

RXF 393 = settings: Homo sapiens, RXF 393;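 note: growth inhibition of human RXF 393 cells, read out with a cell viability assay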
Description: SANGER: Inhibition of human RXF393 cell growth in a cell viability assay.

TE-6 = settings: Homo sapiens, TE-6;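 note: growth inhibition of TE-6 cells, read out with a cell viability assay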
Description: SANGER: Inhibition of human TE-6 cell growth in a cell viability assay.

A253 cell line = settings: Homo sapiens, A253;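 note: growth inhibition of A253 cells, read out with a cell viability assay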
Description: SANGER: Inhibition of human A253 cell growth in a cell viability assay.

EOL1 = settings: Homo sapiens, EOL1;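 note: growth inhibition of EoL-1 cells, read out by a cell viability assay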
Description: SANGER: Inhibition of human EoL-1-cell cell growth in a cell viability assay.

TE-11 = settings: Homo sapiens, TE-11;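 note: growth inhibition of human TE-11 cells, read out by a cell viability assay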
Description: SANGER: Inhibition of human TE-11 cell growth in a cell viability assay.

SNU-5 = settings: Homo sapiens, SNU-5;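 note: cell viability readout used to measure growth inhibition in human NCI-SNU-5 cells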
Description: SANGER: Inhibition of human NCI-SNU-5 cell growth in a cell viability assay.

SNU-C2B = settings: Homo sapiens, SNU-C2B;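 note: cell viability readout used to measure compound-driven suppression of SNU-C2B cell proliferation, IC50 marking half-maximal growth inhibition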
Description: SANGER: Inhibition of human SNU-C2B cell growth in a cell viability assay.

LU-139 = settings: Homo sapiens, LU-139
Description: SANGER: Inhibition of human LU-139 cell growth in a cell viability assay.

A704 = settings: Homo sapiens, A704;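 note: growth inhibition of human A704 cells, read out with a cell viability assay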
Description: SANGER: Inhibition of human A704 cell growth in a cell viability assay.

ALL-PO = settings: Homo sapiens, ALL-PO;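 note: growth inhibition of ALL-PO cells, read out by a cell viability assay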
Description: SANGER: Inhibition of human ALL-PO cell growth in a cell viability assay.

ES6 = settings: Homo sapiens, ES6;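 note: growth inhibition of human ES6 cells, read out with a cell viability assay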
Description: SANGER: Inhibition of human ES6 cell growth in a cell viability assay.

no-11 = settings: Homo sapiens;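 note: growth inhibition of human NO-11 cells, read out with a cell viability assay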
Description: SANGER: Inhibition of human no-11 cell growth in a cell viability assay.

C8166 = settings: Homo sapiens, C8166;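 note: growth inhibition of human C8166 cells measured by a cell viability assay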
Description: SANGER: Inhibition of human C8166 cell growth in a cell viability assay.

D-263MG = settings: Homo sapiens, D-263MG
Description: SANGER: Inhibition of human D-263MG cell growth in a cell viability assay.

SF-126 = settings: Homo sapiens, SF-126;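 note: growth inhibition of human SF126 cells, read out with a cell viability assay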
Description: SANGER: Inhibition of human SF126 cell growth in a cell viability assay.

A388 = settings: Homo sapiens, A388;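 note: growth inhibition of human A388 cells, read out with a cell viability assay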
Description: SANGER: Inhibition of human A388 cell growth in a cell viability assay.

NMC-G1 = settings: Homo sapiens, NMC-G1;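 note: growth inhibition of the NMC-G1 cell line, measured with a cell viability read-out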
Description: SANGER: Inhibition of human NMC-G1 cell growth in a cell viability assay.

NCI-H1304 = settings: Homo sapiens, NCI-H1304;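 note: growth inhibition of the cancer cell line, measured in a cell viability assay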
Description: SANGER: Inhibition of human NCI-H1304 cell growth in a cell viability assay.

COLO-824 = settings: Homo sapiens, COLO-824
Description: SANGER: Inhibition of human COLO-824 cell growth in a cell viability assay.

HEL = settings: Homo sapiens, HEL;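 note: growth inhibition of HEL cells, read out with a cell viability assay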
Description: SANGER: Inhibition of human HEL cell growth in a cell viability assay.

CTV-1 = settings: Homo sapiens, CTV-1;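 note: growth inhibition of the cell line, read out with a cell viability assay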
Description: SANGER: Inhibition of human CTV-1 cell growth in a cell viability assay.

SCH = settings: Homo sapiens, SCH;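 note: growth inhibition of human SCH cells, read out in a cell viability assay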
Description: SANGER: Inhibition of human SCH cell growth in a cell viability assay.

JAR = settings: Homo sapiens, JAR;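 note: growth inhibition of human JAR cells determined with a cell viability assay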
Description: SANGER: Inhibition of human JAR cell growth in a cell viability assay.

NCI-H2126 = settings: Homo sapiens, NCI-H2126;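 note: growth inhibition of the cancer cell line, determined with a cell viability readout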
Description: SANGER: Inhibition of human NCI-H2126 cell growth in a cell viability assay.

HCC1187 = settings: Homo sapiens, HCC1187;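 note: growth inhibition of HCC1187 cells, read out with a cell viability assay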
Description: SANGER: Inhibition of human HCC1187 cell growth in a cell viability assay.

KM12 = settings: Homo sapiens, KM12;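 note: KM12 cell growth inhibition, read out with a cell viability assay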
Description: SANGER: Inhibition of human KM12 cell growth in a cell viability assay.

VA-ES-BJ = settings: Homo sapiens, VA-ES-BJ;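 note: growth inhibition of the VA-ES-BJ cell line, read out by a cell viability assay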
Description: SANGER: Inhibition of human VA-ES-BJ cell growth in a cell viability assay.

SK-N-FI = settings: Homo sapiens, SK-N-FI;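 note: cell viability assay measuring growth inhibition of human SK-N-FI cells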
Description: SANGER: Inhibition of human SK-N-FI cell growth in a cell viability assay.

HCC2157 = settings: Homo sapiens, HCC2157;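 note: growth inhibition of the cancer cell line, read out as cell viability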
Description: SANGER: Inhibition of human HCC2157 cell growth in a cell viability assay.

BT-474 = settings: Homo sapiens, BT-474
Description: SANGER: Inhibition of human BT-474 cell growth in a cell viability assay.

SJSA-1 = settings: Homo sapiens, SJSA-1;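 note: growth inhibition of human SJSA-1 cells, read out through a cell viability measurement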
Description: SANGER: Inhibition of human SJSA-1 cell growth in a cell viability assay.

MFH-ino = settings: Homo sapiens, MFH-ino;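 note: growth inhibition of human MFH-ino cells, read out by a cell viability assay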
Description: SANGER: Inhibition of human MFH-ino cell growth in a cell viability assay.

HT-144 = settings: Homo sapiens, HT-144
Description: SANGER: Inhibition of human HT-144 cell growth in a cell viability assay.

EW-16 = settings: Homo sapiens, EW-16;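 note: growth inhibition of human EW-16 cells, read out as cell viability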
Description: SANGER: Inhibition of human EW-16 cell growth in a cell viability assay.

NCI-H526 = settings: Homo sapiens, NCI-H526;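 note: growth inhibition of the human NCI-H526 cell line, measured by a cell viability assay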
Description: SANGER: Inhibition of human NCI-H526 cell growth in a cell viability assay.

KGN = settings: Homo sapiens, KGN;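 note: growth inhibition of KGN cells, read out with a cell viability assay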
Description: SANGER: Inhibition of human KGN cell growth in a cell viability assay.

Nc1ccn([C@@H]2O[C@H](CO)[C@@H](O)C2(F)F)c(=O)n1 [GEMCITABINE]
IC50 (MS-1): 46.3 nM
IC50 (LU-134-A): 40 nM
IC50 (CTB-1): 53.4 nM
IC50 (COLO-320-HSR): 224 nM
IC50 (CAS-1): 955 nM
IC50 (SNU1): < 0.004 µM
IC50 (PSN1): < 4 nM
IC50 (TGW): 200 nM
IC50 (LAN-6): > 1.02 µM
IC50 (KY821): > 1020 nM
IC50 (Becker): 267 nM
IC50 (HCC2218): > 1.02 µM
IC50 (Calu-6): 1.73 nM
IC50 (LB2518-MEL): 64.5 nM
IC50 (RXF 393): > 1.02 µM
IC50 (TE-6): 250 nM
IC50 (A253 cell line): 102 nM
IC50 (EOL1): < 4 nM
IC50 (TE-11): > 1020 nM
IC50 (SNU-5): 12.1 nM
IC50 (SNU-C2B): > 1.02 µM
IC50 (LU-139): 14.6 nM
IC50 (A704): 53.8 nM
IC50 (ALL-PO): < 4 nM
IC50 (ES6): < 4 nM
IC50 (no-11): 0.737 µM
IC50 (C8166): 13.1 nM
IC50 (D-263MG): > 1.02 µM
IC50 (SF-126): 7.05 nM
IC50 (A388): 1.36 nM
IC50 (NMC-G1): 8.76 nM
IC50 (NCI-H1304): 385 nM
IC50 (COLO-824): > 1.02 µM
IC50 (HEL): 1.79 nM
IC50 (CTV-1): 14.1 nM
IC50 (SCH): > 1.02 µM
IC50 (JAR): > 1.02 µM
IC50 (NCI-H2126): > 1.02 µM
IC50 (HCC1187): > 1.02 µM
IC50 (KM12): 91.5 nM
IC50 (VA-ES-BJ): 5.26 nM
IC50 (SK-N-FI): > 1.02 µM
IC50 (HCC2157): > 1.02 µM
IC50 (BT-474): > 1.02 µM
IC50 (SJSA-1): 0.195 µM
IC50 (MFH-ino): 1.66 nM
IC50 (HT-144): 4.92 nM
IC50 (EW-16): < 4 nM
IC50 (NCI-H526): 110 nM
IC50 (KGN): < 4 nM

CCN(CC)CCNC(=O)c1c(C)[nH]c(/C=C2\C(=O)Nc3ccc(F)cc32)c1C [SUNITINIB]
IC50 (MS-1): 3840 nM
IC50 (LU-134-A): > 8000 nM
IC50 (CTB-1): > 8000 nM
IC50 (COLO-320-HSR): > 8000 nM
IC50 (CAS-1): > 8000 nM
IC50 (SNU1): > 8 µM
IC50 (PSN1): 1510 nM
IC50 (TGW): > 8000 nM
IC50 (LAN-6): > 8 µM
IC50 (KY821): 2800 nM
IC50 (Becker): > 8000 nM
IC50 (HCC2218): > 8 µM
IC50 (Calu-6): > 8000 nM
IC50 (LB2518-MEL): > 8000 nM
IC50 (RXF 393): > 8 µM
IC50 (TE-6): > 8000 nM
IC50 (A253 cell line): > 8000 nM
IC50 (EOL1): < 31.2 nM
IC50 (TE-11): 1840 nM
IC50 (SNU-5): > 8000 nM
IC50 (SNU-C2B): > 8 µM
IC50 (LU-139): > 8000 nM
IC50 (A704): > 8000 nM
IC50 (ALL-PO): 79.9 nM
IC50 (ES6): 981 nM
IC50 (no-11): 7.78 µM
IC50 (C8166): > 8000 nM
IC50 (D-263MG): > 8 µM
IC50 (SF-126): 3060 nM
IC50 (A388): > 8000 nM
IC50 (NMC-G1): > 8000 nM
IC50 (NCI-H1304): > 8000 nM
IC50 (COLO-824): > 8 µM
IC50 (HEL): 3480 nM
IC50 (CTV-1): 1730 nM
IC50 (SCH): > 8 µM
IC50 (JAR): 3.99 µM
IC50 (NCI-H2126): > 8 µM
IC50 (HCC1187): > 8 µM
IC50 (KM12): 350 nM
IC50 (VA-ES-BJ): > 8000 nM
IC50 (SK-N-FI): > 8 µM
IC50 (HCC2157): > 8 µM
IC50 (BT-474): > 8 µM
IC50 (SJSA-1): 7.66 µM
IC50 (MFH-ino): > 8000 nM
IC50 (HT-144): > 8000 nM
IC50 (EW-16): 2140 nM
IC50 (NCI-H526): > 8000 nM
IC50 (KGN): 2600 nM
